System: gray mold fungus (Botrytis cinerea)
Assay: Cucumber leaf disk preventive test against gray mold fungus
Type: in vivo
Settings: 15° C., six days
Method: True leaf of cucumber was punched out with cork borer to 13 mm in diameter to prepare a leaf disk. In 24 well microwell plate that was dispensed with 1 ml 0.8% water agar, the leaf disk was placed such that the upper side of the leaf was in an upward direction. […] Control where 20 micro liter ion-exchange water was spread was prepared (for non-treated group). After confirming that the spray solution was dried, conidium of gray mold fungus (Botrytis cinerea) was suspended into potato dextrose broth (DIFCO) in a density, of about 10^5 conidia/mL and was then subjected to a spray inoculation. After leaving to stand the leaf disk in a growth chamber set up at 15° C. for six days, an onset area on each leaf was measured and a preventive value was then calculated by the following equation 1.
The same above operations were carried out using spinetoram or spinosad instead of abamectin, so as to obtain the respective preventive values. Preventive value(%)=100×(A−B)/A (Equation 1)
A: an onset area rate of plant belonging to non-treated group
B: an onset area rate of plant belonging to treated group onset area rate=(onset area of the leaf disk)/(the total area of the leaf disk)
The same above operations as described in Test Examples 1 to 6 were carried out using emamectin-benzoate, lepimectin or milbemectin instead of abamectin, so as to obtain the respective preventive values. […]

Compound: CNC(=O)C(OC)c1ccccc1COc1cc(C)ccc1C (centres unmarked) [the present amide compound]
- preventive value (%) (the present amide compound alone 1.0 ppm (dimethyl sulfoxide solution)): 46%
- preventive value (%) (the present amide compound alone 2.5 ppm (dimethyl sulfoxide solution)): 56%

Source: patent US9049858B2, “Pest controlling composition and method for controlling pest” (SUMITOMO CHEMICAL COMPANY, LIMITED, priority 2010, dated 2015)
